This passage reports GI50 and TGI results from PubChem BioAssay (NCI).

Molecules are shown by their SMILES.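 Assay format: 96-well plates, 48-hour exposure. GI50 marks 50% less growth. TGI marks complete inhibition of growth.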

Common to all, as to test: DTP human tumour cell line panel, 48 h
For test [1], the system named is 786-0 renal.
Test [2] relates to COLO 205 colon.
In test [3] the test system is EKVX NSCLC.
The test system of test [4] is HCT-116 colon.
Test [5] has as its system HCT-15 colon.
In test [6] the test system is KM12 colon.
Test [7] concerns NCI-H522 lung.
Test [8] concerns OVCAR-5 ovarian.
Test [9] concerns SF-539 CNS.
For test [10], the system named is MALME-3M melanoma.

A word on the GI50: it is the concentration at which growth is held to half of that of the control. In general, TGI refers to the concentration at which net growth stops. `COc1cccc(N=Cc2c3ccccc3c(=O)n3c2oc2ccccc23)c1`: the GI50 was 14 µM in test [1]; 34.5 µM in test [2]; 17.3 µM in [3]; 5.62 µM in test [4]; 14.4 µM in test [5]; 3.78 µM in test [6]. For the same compound, the figures for the GI50 in test [7], in test [8] and in [9] were 24 µM, 27.1 µM and 16.3 µM, respectively. The TGI in [1] is over 100 µM; in test [2], over 100 µM; in [3] it was over 100 µM; in [4], over 100 µM; in [5], over 100 µM; in [6], 42.8 µM. The results for the TGI in [7], in test [8] and in [9] were over 100 µM, 87.4 µM and 95.3 µM, respectively.

Consider `C#CC[C@]12CC(=O)CC[C@H]1CC(=O)C2`, for which the TGI in test [1], in test [2], in [4], in [5], in test [6] and in test [10] was over 100 µM in each case. The TGI in test [7] and in test [9] was over 100 µM throughout.

On to `O=C(CC(=O)N1N=C(c2ccccc2)C(N=Nc2ccc(Cl)cc2)C1=O)Nc1ccccc1Cl` (stereo not given), for which the total growth inhibition concentration (TGI) is 26 µM in test [1]; over 100 µM in test [2]; over 100 µM in test [3]; over 100 µM in test [4]; over 100 µM in test [5]; over 100 µM in test [6]. In addition, the TGI in test [7] was over 100 µM; in [8] it was over 100 µM; in [9], 68.2 µM.

Regarding `Cn1cc(C2=C(c3cn(C)c4c(N)cccc34)C(=O)NC2=O)c2ccccc21`, the GI50 was 2 µM in [1]; 1.99 µM in test [2]; 1.03 µM in [4]; 0.743 µM in [5]; 0.968 µM in [6]; 9.53 µM in test [10]. For the same compound, the GI50 was 0.996 µM in test [7], 6.41 µM in test [8] and 0.59 µM in [9]. Further, the TGI was over 25 µM in test [1]; 9.96 µM in test [2]; over 20.6 µM in [4]; over 25 µM in test [5]; 12.1 µM in test [6]; over 25 µM in test [10]. The TGI in [7] is over 15 µM; in test [8] it was over 22.1 µM; in test [9] it was 1.98 µM.

Consider `CCCCNC(=O)NS(=O)(=O)c1ccc(N2N=C(c3ccc(C)cc3C)CC2c2ccc(N(C)C)cc2)cc1` (stereo not given), for which the GI50 is 5.45 µM in [1]; 3.19 µM in test [2]; 3.86 µM in test [4]; 3.09 µM in test [5]; 3.72 µM in test [6]; 3.08 µM in test [10]. The values for the GI50 in [7], in test [8] and in test [9] were 3.25 µM, 5.24 µM and 3.22 µM, respectively. Further, the TGI in test [1] was over 100 µM; in [2], 7.56 µM; in [4], over 100 µM; in test [5], over 100 µM; in test [6], over 100 µM; in test [10] it was 41.7 µM. For the same compound, the TGI is 14.8 µM in test [7], 96.1 µM in [8] and 14 µM in test [9].

In the case of `COc1ccc(S(=O)(=O)N(Cc2ccc3c(n2)C=CC(C)(C)O3)C2CCC2)cc1OC`, the GI50 in test [1] is under 0.01 µM; in test [2] it was under 0.01 µM; in test [4] it was under 0.01 µM; in test [5] it was 0.0154 µM; in [6], under 0.01 µM; in test [10], under 0.01 µM. For the same compound, the GI50 in test [7], in test [8] and in test [9] was under 0.01 µM throughout. The total growth inhibition concentration (TGI) is 0.374 µM in test [1]; 0.0537 µM in test [2]; 4.05 µM in test [4]; over 33.6 µM in test [5]; over 37.7 µM in test [6]; 0.0209 µM in test [10]. Besides, the TGI in [7] turned out to be 0.0768 µM; in test [8], 7.25 µM; in [9] it was 0.378 µM.

Turning to `COc1cc(-c2c(C#N)c(N)n3c(nc4ccccc43)c2C#N)cc(Br)c1OC`, the GI50 was 6.24 µM in test [1]; over 100 µM in test [2]; 4.77 µM in test [4]; over 100 µM in test [5]; 79.7 µM in [7]; over 100 µM in test [8]. In [9], the GI50 is over 100 µM. In addition, the TGI in [1], in [2], in [4], in test [5], in [7] and in test [8] was over 100 µM in each case. Further, the TGI in [9] was over 100 µM.

In the case of `CC(C)=CC(=O)N1CCN(C(=O)C=C(C)C)CC1`, the TGI in test [1], in test [3], in [4], in test [5], in test [6] and in test [7] was over 100 µM each time. Also, the TGI in test [8] and in test [9] was over 100 µM each time.

As to `N#CCCN(c1ccc(/C=C2\N=C(c3ccc(Cl)cc3)OC2=O)cc1)S(=O)(=O)c1ccccc1`, the TGI in [1], in [2], in test [3], in [4], in test [5] and in test [6] was over 100 µM each time. The TGI in [7], in [8] and in [9] was over 100 µM throughout.

`CCOC(=O)NC(=O)c1cn(CCCOC(=O)NCCCCCCNC(=O)OCCCn2c(=O)c(C(=O)NC(=O)OCC)cn(C)c2=O)c(=O)n(C)c1=O`: the TGI in [1], in [2], in test [4], in test [5], in test [6] and in test [10] was over 100 µM each time. Further, the concentration for total growth inhibition (TGI) in [7] and in test [8] was over 100 µM each time.

Turning to `Cc1c2c(nn1-c1ccc(S(=O)(=O)/N=C3\SCC(=O)N3C(=O)c3ccccc3)cc1)-c1ccccc1CC2`, the GI50 in test [1] is 28.9 µM; in [3] it was 40.5 µM; in test [4] it was 26.4 µM; in test [5], 22.4 µM; in test [6] it was 51.4 µM; in [7], 96.2 µM. In test [8], the GI50 was 49.9 µM. Moreover, the TGI in [1] is 77.9 µM; in test [3], 90.7 µM; in test [4], 58.8 µM; in test [5], 49.5 µM; in test [6], over 100 µM; in test [7], over 100 µM. Moreover, the TGI in test [8] is over 100 µM.

Turning to `C[C@]12CC[C@@H]3c4ccc(Oc5nc(N6CC6)nc(N6CC6)n5)cc4CC[C@H]3[C@@H]1CCC2=O`, the GI50 was 3.41 µM in test [1]; 3.35 µM in [2]; 2.46 µM in [4]; 2.85 µM in test [5]; 5.5 µM in test [6]; 1.91 µM in test [7]. In addition, the GI50 in test [8] was 12.1 µM; in [9], 2.2 µM. The concentration for total growth inhibition (TGI) stood at 22.3 µM in test [1]; 16.2 µM in test [2]; 18.8 µM in [4]; 18.6 µM in test [5]; 20 µM in test [6]; 4.57 µM in test [7]. For the same compound, the TGI in test [8] came out at 30.2 µM; in test [9], 7.43 µM.

Regarding `CCCCC/C=C/C/C=C/CCCCCCCC1=NC(C)(C)CN1C(C)C`, the GI50 was 2.24 µM in test [1]; 1.47 µM in [2]; 1.3 µM in [3]; 1.63 µM in test [5]; 1.61 µM in test [6]; 1.72 µM in test [7]. The GI50 was 1.87 µM in test [8] and 1.82 µM in test [9]. The TGI was 5.12 µM in test [1]; 2.79 µM in test [2]; 2.73 µM in test [3]; 3.17 µM in test [5]; 2.96 µM in [6]; 3.17 µM in test [7]. In addition, the figures for the concentration for total growth inhibition (TGI) in test [8] and in test [9] were 4.1 µM and 3.3 µM, respectively.

Regarding `COc1cc([N+](=O)[O-])ccc1NC(=O)C(F)(F)F`, the concentration for total growth inhibition (TGI) in test [1], in test [2], in test [3], in [4], in [5] and in [6] was over 100 µM in each case. The TGI in [7], in test [8] and in test [9] was over 100 µM in each case.

Consider `COc1cc2c3c(n(CCCCl)c(=O)c2cc1OC)-c1ccccc1C3=O`, for which the GI50 in test [1] was 12.3 µM; in test [3], over 100 µM; in [4], 2.46 µM; in test [5], over 100 µM; in test [6], over 100 µM; in test [7], 5.31 µM. Also, in [9], the GI50 was 14.1 µM. Besides, the total growth inhibition concentration (TGI) in test [1], in [3], in test [4], in test [5], in [6] and in [7] was over 100 µM throughout. Moreover, the concentration for total growth inhibition (TGI) in test [9] is over 100 µM.

On to `CCCCn1c(-c2ccc(C(=O)O/N=C(\N)c3ccc(OC)cc3)cc2)nc(-c2ccccc2)c1-c1ccccc1`, for which the GI50 is 0.538 µM in test [1], 2.91 µM in test [6], 2.35 µM in test [8] and 1.67 µM in test [9]. Moreover, the TGI in test [1] was 1.91 µM; in [6], over 100 µM; in test [8], over 100 µM; in test [9] it was 3.24 µM.
